Experimental data published in patent publication US12595253B2, “Benzamides of pyrazolylamino-pyrimidinyl derivatives, and compositions and methods thereof” (LYNK PHARMACEUTICALS CO. LTD., priority 2019, dated 2026).

Tests used:
Format in all cases: biochemical
JAK1 = target: T1, JAK1 (Homo sapiens, UniProt P23458); experiment: JAK1 microfluidic kinase assay (Caliper EZ Reader II, FAM labeled peptide substrate); conditions: IC50 JAK1 (5 nM) (1 m MATP), JAK1 5 nM, 1 mM ATP
T1 construct: purchased Carna Biosciences
T1 sequence (P23458 whole entry): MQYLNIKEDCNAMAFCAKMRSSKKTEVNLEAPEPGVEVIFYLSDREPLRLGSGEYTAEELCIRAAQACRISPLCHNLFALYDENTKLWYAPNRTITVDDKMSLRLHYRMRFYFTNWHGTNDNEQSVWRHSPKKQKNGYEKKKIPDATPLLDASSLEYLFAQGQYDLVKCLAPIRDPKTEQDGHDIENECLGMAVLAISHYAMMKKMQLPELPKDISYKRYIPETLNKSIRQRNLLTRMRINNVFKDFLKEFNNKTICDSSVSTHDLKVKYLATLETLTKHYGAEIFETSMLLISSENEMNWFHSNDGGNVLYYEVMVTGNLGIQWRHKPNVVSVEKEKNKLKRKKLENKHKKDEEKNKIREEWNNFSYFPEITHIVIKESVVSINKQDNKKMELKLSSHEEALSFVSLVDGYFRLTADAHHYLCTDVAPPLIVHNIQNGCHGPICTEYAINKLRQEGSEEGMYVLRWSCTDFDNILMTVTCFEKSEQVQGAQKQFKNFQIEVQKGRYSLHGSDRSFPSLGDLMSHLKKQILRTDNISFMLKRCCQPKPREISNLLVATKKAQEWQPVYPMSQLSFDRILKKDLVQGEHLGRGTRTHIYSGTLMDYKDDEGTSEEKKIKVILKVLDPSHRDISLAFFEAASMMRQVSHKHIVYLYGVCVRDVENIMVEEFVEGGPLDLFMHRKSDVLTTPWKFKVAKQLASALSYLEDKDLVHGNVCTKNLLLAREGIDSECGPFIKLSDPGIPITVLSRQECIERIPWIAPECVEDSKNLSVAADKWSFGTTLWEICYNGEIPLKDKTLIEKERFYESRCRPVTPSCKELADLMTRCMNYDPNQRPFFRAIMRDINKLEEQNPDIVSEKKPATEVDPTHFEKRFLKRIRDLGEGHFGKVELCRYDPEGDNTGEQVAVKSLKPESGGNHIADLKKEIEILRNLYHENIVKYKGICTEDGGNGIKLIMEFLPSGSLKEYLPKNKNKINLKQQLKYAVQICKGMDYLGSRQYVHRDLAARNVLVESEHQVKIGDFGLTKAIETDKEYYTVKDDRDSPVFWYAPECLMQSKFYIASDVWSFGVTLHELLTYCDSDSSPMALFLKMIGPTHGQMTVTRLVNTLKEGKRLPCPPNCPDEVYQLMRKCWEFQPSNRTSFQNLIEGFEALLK
Procedure: (§1) Compounds were tested against JAK1, JAK2, JAK2V617F and TYK2. Assay Formats: JAK activity was determined in the reaction buffer 50 mM HEPES, 0.01% Brij35, 10 mM MgCl2, 2 mM DTT by a microfluidic assay. The phosphorylation of a FAM labeled peptide substrate was monitored in the Caliper EZ Reader II (Perkin Elmer). The assay condition for each batch of enzyme (Carna Biosciences) was optimized to obtain 10% conversion rate of peptide substrate. The test compounds were dissolved in DMSO to a stock concentration of 10 mM. 3-fold serially diluted compounds with top concentration of 5 μM were pre-incubated with JAK1, JAK2, JAK2V617F or TYK2 at indicated concentrations for 10 min at ambient temperature. The final DMSO concentration of assay mixture was 1%. […] The reaction was stopped by adding 50 mM EDTA. […] The percent inhibition was calculated by the following formula. % Inhibition=(Conversionmax−Conversionsample)/(Conversionmax−Conversionmin)*100 • Conversionmax means the conversion rate in the positive well without addition of compound • Conversionmin means the conversion rate in the well without addition of enzyme • Conversionsample means the conversion rate of test compounds The dose-response (percent inhibition) curve was plotted and IC50 values were determined by GraphPad software.

JAK2 = target: T2, JAK2 (Homo sapiens, UniProt O60674); experiment: JAK2 microfluidic kinase assay (Caliper EZ Reader II, FAM labeled peptide substrate)
T2 construct: purchased Carna Biosciences
T2 sequence (O60674 whole entry): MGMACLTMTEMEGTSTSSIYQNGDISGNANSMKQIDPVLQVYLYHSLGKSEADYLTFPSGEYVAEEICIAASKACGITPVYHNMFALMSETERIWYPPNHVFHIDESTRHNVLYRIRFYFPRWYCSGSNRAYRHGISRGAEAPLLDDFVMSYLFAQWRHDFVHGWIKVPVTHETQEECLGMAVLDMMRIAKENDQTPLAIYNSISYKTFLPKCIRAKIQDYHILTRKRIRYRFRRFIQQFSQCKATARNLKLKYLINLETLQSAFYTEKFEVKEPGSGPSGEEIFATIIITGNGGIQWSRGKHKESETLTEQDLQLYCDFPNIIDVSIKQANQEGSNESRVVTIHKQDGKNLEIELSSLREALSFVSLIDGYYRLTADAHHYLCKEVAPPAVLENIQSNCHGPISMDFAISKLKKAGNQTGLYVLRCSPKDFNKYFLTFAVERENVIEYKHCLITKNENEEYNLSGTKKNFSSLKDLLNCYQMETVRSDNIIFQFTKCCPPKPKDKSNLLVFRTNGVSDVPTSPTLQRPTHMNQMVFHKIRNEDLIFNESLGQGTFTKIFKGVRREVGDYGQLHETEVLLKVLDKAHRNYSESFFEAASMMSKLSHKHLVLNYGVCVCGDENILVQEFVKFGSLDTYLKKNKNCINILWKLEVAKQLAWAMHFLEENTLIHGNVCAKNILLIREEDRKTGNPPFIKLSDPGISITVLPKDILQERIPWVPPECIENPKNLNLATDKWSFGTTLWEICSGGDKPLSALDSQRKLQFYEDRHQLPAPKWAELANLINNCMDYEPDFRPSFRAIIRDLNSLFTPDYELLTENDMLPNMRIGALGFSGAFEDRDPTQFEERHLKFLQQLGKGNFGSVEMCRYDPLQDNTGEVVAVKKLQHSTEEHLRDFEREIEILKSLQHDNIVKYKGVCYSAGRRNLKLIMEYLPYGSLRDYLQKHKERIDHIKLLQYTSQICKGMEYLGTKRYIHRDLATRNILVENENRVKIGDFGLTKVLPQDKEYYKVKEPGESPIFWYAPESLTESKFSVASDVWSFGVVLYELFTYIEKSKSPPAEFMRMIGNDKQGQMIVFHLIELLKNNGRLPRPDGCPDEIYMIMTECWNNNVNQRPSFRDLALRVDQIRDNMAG
Procedure: as §1

JAK2V617F = target: T3, JAK2V617F (Homo sapiens, UniProt O60674, V617F); experiment: JAK2V617F microfluidic kinase assay (Caliper EZ Reader II, FAM labeled peptide substrate); conditions: JAK2V617F 2.5 nM, 1 mM ATP
T3 construct: purchased Carna Biosciences
T3 sequence (O60674 whole entry V617F): as the sequence (O60674 whole entry) above, with V617F counted along it
Procedure: as §1

[1] = IC50 JAK2 ([…]) (1 mM ATP), 1 mM ATP

| Structure (SMILES) | IC50 (JAK1) [nM] | IC50 (JAK2; [1]) [nM] | IC50 (JAK2; IC50 JAK2 ([…]) (Km ATP), Km ATP) [nM] | IC50 (JAK2V617F) [nM] |
| --- | --- | --- | --- | --- |
| Cc1cnc(Nc2cnn(C3CCOCC3)c2)nc1-c1ccc(C(=O)N2CC(C#N)C2)cc1 [Example 31, 1-(4-(5-Methyl-2-((1-(tetrahydro-2H-pyran-4-yl)-1H-pyrazol-4-yl)amino)pyrimidin-4-yl)benzoyl)azetidine-3-carbonitrile] | 235 | 71.7 | 2.07 | 131 |
| Cc1cnc(Nc2cnn(C3CCN(S(C)(=O)=O)CC3)c2)nc1-c1ccc(C(=O)NCC2(C#N)CC2)cc1 [Example 159, N-((1-cyanocyclopropyl)methyl)-4-(5-methyl-2-((1-(1-(methylsulfonyl)piperidin-4-yl)-1H-pyrazol-4-yl)amino)pyrimidin-4-yl)benzamide] | 24.1 | 4.82 | – | 36.7 |
| Cc1cnc(Nc2cnn(C3CCN(C(=O)C4CC4(F)F)CC3)c2)nc1-c1ccc(C(=O)NCC#N)cc1 (stereo not drawn) [Example 145, N-(cyanomethyl)-4-(2-((1-(1-(2,2-difluorocyclopropanecarbonyl)piperidin-4-yl)-1H-pyrazol-4-yl)amino)-5-methylpyrimidin-4-yl)benzamide] | 15.1 | 0.47 | – | 6.97 |
| CCn1cc(Nc2ncc(Cl)c(-c3ccc(C(=O)N[C@@H](C)C#N)cc3)n2)cn1 [Example 229, (S)-4-(5-Chloro-2-((1-ethyl-1H-pyrazol-4-yl)amino)pyrimidin-4-yl)-N-(1-cyanoethyl)benzamide] | 3.68 | 1.68 | – | 14.1 |
| Cc1cnc(Nc2cnn(C3CCC(F)(F)CC3)c2)nc1-c1ccc(C(=O)N[C@@H](C)C#N)cc1 [Example 85, (S)—N-(1-cyanoethyl)-4-(2-((1-(4,4-difluorocyclohexyl)-1H-pyrazol-4-yl)amino)-5-methylpyrimidin-4-yl)benzamide] | 11.1 | – | – | 2.17 |
| Cc1cnc(Nc2cnn(C3CC3)c2)nc1-c1ccc(C(=O)N[C@H](C#N)C2CC2)cc1 [Example 194, (S)—N-(cyano(cyclopropyl)methyl)-4-(2-((1-cyclopropyl-1H-pyrazol-4-yl)amino)-5-methylpyrimidin-4-yl)benzamide] | 5.65 | – | – | 33.5 |
| Cc1cnc(Nc2cnn(C3CN(C(=O)C4CC4)C3)c2)nc1-c1ccc(C(=O)N[C@@H](C)C#N)cc1 [Example 71, (S)—N-(1-cyanoethyl)-4-(2-((1-(1-(cyclopropanecarbonyl)azetidin-3-yl)-1H-pyrazol-4-yl)amino)-5-methylpyrimidin-4-yl)benzamide] | 26 | – | – | 42.8 |
| CCC[C@@H](C#N)NC(=O)c1ccc(-c2nc(Nc3cnn(C4CC4)c3)ncc2C)cc1 [Example 202, (S)—N-(1-cyanobutyl)-4-(2-((1-cyclopropyl-1H-pyrazol-4-yl)amino)-5-methylpyrimidin-4-yl)benzamide] | 2.97 | – | – | 23.9 |
| Cc1cnc(Nc2cnn([C@H]3CC[C@@H](C#N)CC3)c2)nc1-c1ccc(C(=O)N[C@@H](C)C#N)cc1 [Example 149, 4-(2-((1-(Cis-4-cyanocyclohexyl)-1H-pyrazol-4-yl)amino)-5-methylpyrimidin-4-yl)-N—((S)-1-cyanoethyl)benzamide] | 15 | – | – | 30.5 |
| CC(C)(C)C(=O)N1CCC(n2cc(Nc3ncc(F)c(-c4ccc(C(=O)NCC#N)cc4)n3)cn2)CC1 [Example 56, N-(cyanomethyl)-4-(5-fluoro-2-((1-(1-pivaloylpiperidin-4-yl)-1H-pyrazol-4-yl)amino)pyrimidin-4-yl)benzamide] | 167 | – | – | 52.6 |
| N#CCNC(=O)c1ccc(-c2nc(Nc3cnn(C4CCOCC4)c3)ncc2Cl)cc1 [Example 146, 4-(5-chloro-2-((1-(tetrahydro-2H-pyran-4-yl)-1H-pyrazol-4-yl)amino)pyrimidin-4-yl)-N-(cyanomethyl)benzamide] | 13.5 | – | – | 14.1 |
| Cc1cnc(Nc2cnn(C3CCC(F)(F)CC3)c2)nc1-c1ccc(C(=O)NCC#N)cc1 [Example 84, N-(cyanomethyl)-4-(2-((1-(4,4-difluorocyclohexyl)-1H-pyrazol-4-yl)amino)-5-methylpyrimidin-4-yl)benzamide] | 11.1 | – | – | 13.2 |
| N#CCNC(=O)c1ccc(-c2nc(Nc3cnn(C4CC4)c3)ncc2C(F)F)cc1 [Example 110, N-(cyanomethyl)-4-(2-((1-cyclopropyl-1H-pyrazol-4-yl)amino)-5-(difluoromethyl)pyrimidin-4-yl)benzamide] | 152 | – | – | 556 |
| N#CCNC(=O)c1ccc(-c2nc(Nc3cnn(C4CCOCC4)c3)ncc2C(F)(F)F)cc1 [Example 153, N-(cyanomethyl)-4-(2-((1-(tetrahydro-2H-pyran-4-yl)-1H-pyrazol-4-yl)amino)-5-(trifluoromethyl)pyrimidin-4-yl)benzamide] | 235 | – | – | 283 |
| Cc1cnc(Nc2cnn(C3CCOCC3)c2)nc1-c1ccc(C(=O)NCCC(F)(F)F)cc1 [Example 77, 4-(5-Methyl-2-((1-(tetrahydro-2H-pyran-4-yl)-1H-pyrazol-4-yl)amino)pyrimidin-4-yl)-N-(3,3,3-trifluoropropyl)benzamide] | 43.5 | – | – | 76.3 |
| Cc1cnc(Nc2cnn([C@H]3CC[C@H](C#N)CC3)c2)nc1-c1ccc(C(=O)NCC#N)cc1 [Example 147, 4-(2-((1-(Trans-4-cyanocyclohexyl)-1H-pyrazol-4-yl)amino)-5-methylpyrimidin-4-yl)-N-(cyanomethyl)benzamide] | 10.8 | – | – | 19.9 |
| Cc1cnc(Nc2cnn(C3CCCOC3)c2)nc1-c1ccc(C(=O)NCC#N)cc1 (stereo not drawn) [Example 67, N-(cyanomethyl)-4-(5-methyl-2-((1-(tetrahydro-2H-pyran-3-yl)-1H-pyrazol-4-yl)amino)pyrimidin-4-yl)benzamide] | 17 | – | – | 27 |
| Cc1cnc(Nc2cnn(C3CCOC(C)C3)c2)nc1-c1ccc(C(=O)NCC#N)cc1 (stereo not drawn) [Example 72, N-(cyanomethyl)-4-(5-methyl-2-((1-(2-methyltetrahydro-2H-pyran-4-yl)-1H-pyrazol-4-yl)amino)pyrimidin-4-yl)benzamide] | 28 | – | – | 33.6 |
| Cc1cnc(Nc2cnn(C3CC4CCC(C3)N4C(=O)C3CC3)c2)nc1-c1ccc(C(=O)NCC#N)cc1 [Example 64, N-(cyanomethyl)-4-(2-((1-((1R,3r,5S)-8-(cyclopropanecarbonyl)-8-azabicyclo[3.2.1]octan-3-yl)-1H-pyrazol-4-yl)amino)-5-methylpyrimidin-4-yl)benzamide] | 33.7 | – | – | 40.9 |
| CC[C@@H](C#N)NC(=O)c1ccc(-c2nc(Nc3cnn(C4CCOCC4)c3)ncc2C)cc1 [Example 201, (S)—N-(1-cyanopropyl)-4-(5-methyl-2-((1-(tetrahydro-2H-pyran-4-yl)-1H-pyrazol-4-yl)amino)pyrimidin-4-yl)benzamide] | 2.22 | – | – | 3.03 |
| CC[C@@H](C#N)NC(=O)c1ccc(-c2nc(Nc3cnn(C4CCOCC4)c3)ncc2Cl)cc1 [Example 203, (S)-4-(5-chloro-2-((1-(tetrahydro-2H-pyran-4-yl)-1H-pyrazol-4-yl)amino)pyrimidin-4-yl)-N-(1-cyanopropyl)benzamide] | 5.02 | – | – | 3.06 |
| Cc1cnc(Nc2cnn(C3C[C@H]4CC[C@@H](C3)O4)c2)nc1-c1ccc(C(=O)NCC#N)cc1 (stereo partly drawn) [Example 69, 4-(2-((1-((1R,5S)-8-oxabicyclo[3.2.1]octan-3-yl)-1H-pyrazol-4-yl)amino)-5-methylpyrimidin-4-yl)-N-(cyanomethyl)benzamide] | 14.3 | – | – | 21.9 |
| Cc1cnc(Nc2cnn(C3CC(F)(F)C3)c2)nc1-c1ccc(C(=O)N[C@@H](C)C#N)cc1 [Example 155, (S)—N-(1-cyanoethyl)-4-(2-((1-(3,3-difluorocyclobutyl)-1H-pyrazol-4-yl)amino)-5-methylpyrimidin-4-yl)benzamide] | 480 | – | – | 1890 |
| Cc1cnc(Nc2cnn(C3CC3)c2)nc1-c1ccc(C(=O)N[C@H](C#N)C(C)C)cc1 [Example 197, (S)—N-(1-Cyano-2-methylpropyl)-4-(2-((1-cyclopropyl-1H-pyrazol-4-yl)amino)-5-methylpyrimidin-4-yl)benzamide] | 4.14 | – | – | 27.6 |
| Cc1cnc(Nc2cnn(C3CCOCC3)c2)nc1-c1ccc(C(=O)NCC(C)(C)C#N)cc1 [Example 133, N-(2-cyano-2-methylpropyl)-4-(5-methyl-2-((1-(tetrahydro-2H-pyran-4-yl)-1H-pyrazol-4-yl)amino)pyrimidin-4-yl)benzamide] | 18.9 | – | – | 35.1 |
| C[C@@H](C#N)NC(=O)c1ccc(-c2nc(Nc3cnn(C4CC4)c3)ncc2Cl)cn1 [Example 121, (S)-5-(5-chloro-2-((1-cyclopropyl-1H-pyrazol-4-yl)amino)pyrimidin-4-yl)-N-(1-cyanoethyl)picolinamide] | 67.4 | – | – | 245 |
